Data reported in US6872735B2, “LFA-1 antagonist compounds” (Genentech, Inc., priority 2000, dated 2005).

Legend:
[1] = Serum/plasma protein binding (ultrafiltration, LC/MS-MS); assay type: in vitro ADME; details: pH 7.4, 37° C., Centrifree ultrafiltration
Description: Binding of test compounds was performed according to procedures described in Borga et al (Journal of Pharmacokinetics & Biopharmaceutics, 1997, 25(1):63-77) and Godolphin et al (Therapeutic drug monitoring, 1983, 5:319-23). Duplicate samples of 10 μl of test compound stock solution (1 μg/μL) was spiked into 1 mL of either buffer or serum/plasma adjusted to pH 7.4 using CO2 at room temperature. Samples were equilibrated by incubating vials in a water bath with shaker at 37° C. for 15 minutes. 200 μl of the buffer spiked sample was saved as prefiltrate. 800 μl of buffer spiked samples and 1 ml of serum spiked samples were centrifuged at 1500 g, 37° C., for 30 minutes in a Centrifree ultrafiltration device (Amicon Inc.). Pre and post-filtrates were then analyzed by LC/MS-MS and percent binding of test compound to serum/plasma protein was determined from the post and prefiltrates accounting for any non-specific binding determined from the buffer control.

[2] = target: recombinant human LFA-1 (LFA-1:ICAM-1) (Homo sapiens, UniProt P05107+P20701); experiment: PLM2 antibody capture LFA-1:ICAM-1 assay
Chain of recombinant human LFA-1 (LFA-1:ICAM-1) (P20701 26-1170): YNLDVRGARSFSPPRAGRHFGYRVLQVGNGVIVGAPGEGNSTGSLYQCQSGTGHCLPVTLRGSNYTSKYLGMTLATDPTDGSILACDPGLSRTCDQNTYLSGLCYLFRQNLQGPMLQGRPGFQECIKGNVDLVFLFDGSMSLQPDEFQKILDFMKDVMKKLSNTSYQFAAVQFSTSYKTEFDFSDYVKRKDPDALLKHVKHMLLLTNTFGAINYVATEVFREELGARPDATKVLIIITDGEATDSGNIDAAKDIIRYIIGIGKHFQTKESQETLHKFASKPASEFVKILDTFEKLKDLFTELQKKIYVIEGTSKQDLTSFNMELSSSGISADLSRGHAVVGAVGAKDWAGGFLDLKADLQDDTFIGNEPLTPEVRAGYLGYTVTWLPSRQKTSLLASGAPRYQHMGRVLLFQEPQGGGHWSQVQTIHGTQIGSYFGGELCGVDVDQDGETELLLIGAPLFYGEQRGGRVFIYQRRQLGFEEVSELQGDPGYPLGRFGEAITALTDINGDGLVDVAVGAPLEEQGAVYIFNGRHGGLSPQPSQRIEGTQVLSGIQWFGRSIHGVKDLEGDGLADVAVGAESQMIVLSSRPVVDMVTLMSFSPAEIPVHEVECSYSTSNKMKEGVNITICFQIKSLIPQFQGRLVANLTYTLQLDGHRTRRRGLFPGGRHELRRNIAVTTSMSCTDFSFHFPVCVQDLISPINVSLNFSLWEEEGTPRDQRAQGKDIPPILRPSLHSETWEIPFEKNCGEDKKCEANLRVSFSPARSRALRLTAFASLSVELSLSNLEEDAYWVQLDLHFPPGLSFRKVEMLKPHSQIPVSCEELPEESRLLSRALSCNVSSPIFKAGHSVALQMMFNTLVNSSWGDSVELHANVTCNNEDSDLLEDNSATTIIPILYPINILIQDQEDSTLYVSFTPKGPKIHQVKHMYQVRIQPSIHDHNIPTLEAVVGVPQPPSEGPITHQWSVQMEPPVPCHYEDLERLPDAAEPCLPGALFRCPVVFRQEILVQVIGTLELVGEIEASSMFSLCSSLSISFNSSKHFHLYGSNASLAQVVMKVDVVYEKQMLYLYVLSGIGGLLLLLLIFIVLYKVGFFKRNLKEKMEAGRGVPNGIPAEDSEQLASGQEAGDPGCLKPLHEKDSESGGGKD
Chain of recombinant human LFA-1 (LFA-1:ICAM-1) (P05107 23-769): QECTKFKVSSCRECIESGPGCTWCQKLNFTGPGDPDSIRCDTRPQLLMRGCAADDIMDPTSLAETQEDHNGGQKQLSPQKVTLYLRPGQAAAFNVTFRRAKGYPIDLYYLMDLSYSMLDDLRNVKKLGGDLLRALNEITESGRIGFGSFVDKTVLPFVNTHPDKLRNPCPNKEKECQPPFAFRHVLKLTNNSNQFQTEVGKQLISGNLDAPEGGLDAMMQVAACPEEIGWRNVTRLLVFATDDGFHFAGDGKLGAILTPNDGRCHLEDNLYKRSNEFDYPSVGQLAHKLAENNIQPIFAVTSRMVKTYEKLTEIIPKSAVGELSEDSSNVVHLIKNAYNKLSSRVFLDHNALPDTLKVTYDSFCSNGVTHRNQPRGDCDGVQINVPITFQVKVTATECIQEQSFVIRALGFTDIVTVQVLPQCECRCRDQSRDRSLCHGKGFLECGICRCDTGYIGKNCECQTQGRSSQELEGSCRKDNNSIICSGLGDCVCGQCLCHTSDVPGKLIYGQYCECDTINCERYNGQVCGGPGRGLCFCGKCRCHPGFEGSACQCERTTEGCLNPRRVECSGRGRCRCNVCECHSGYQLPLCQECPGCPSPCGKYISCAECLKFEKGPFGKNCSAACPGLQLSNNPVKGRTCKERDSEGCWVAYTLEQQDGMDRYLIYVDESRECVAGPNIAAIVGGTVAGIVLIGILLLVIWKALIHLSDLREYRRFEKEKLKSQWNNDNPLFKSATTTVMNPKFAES
Description: The plates are blocked with 0.5% BSA in assay buffer (0.02M Hepes, 0.15M NaCl, and 1 mM MnCl2) 1 h at room temperature. Plates are washed with 50 mM Tris pH 7.5, 0.1M NaCl, 0.05% Tween 20 and 1 mM MnCl2. Purified full-length recombinant human LFA-1 protein is diluted to 2 μg/ml in assay buffer and 100 μl/well is added to plates and incubated 1 h at 37° C. Plates are washed 3×. 50 μl/well inhibitors, appropriately diluted in assay buffer, are added to a 2× final concentration and incubated for 30′ at 37° C. […] Plates are washed and bound ICAM-Ig is detected with Goat anti-HuIgG(Fc)-HRP for 1 h at room temperature. Plates are washed and developed with 100 μl/well TMB substrate for 5-10′ at room temperature.

Compound: O=C(/C=C/c1ccco1)NCc1cc(Cl)c(C(=O)N[C@@H](CNC(=O)C2CCNCC2)C(=O)O)c(Cl)c1 [Compound 3]
- fraction unbound at 15 min, 10 µg/mL [1]: 0.192
- IC50 [2]: 11 nM

Compound: O=C(/C=C/c1ccco1)NCc1cc(Cl)c(C(=O)N[C@@H](CNC(=O)[C@@H]2CCCN2)C(=O)O)c(Cl)c1 [Compound 4]
- fraction unbound at 15 min, 10 µg/mL [1]: 0.171
- IC50 [2]: 4 nM

Compound: O=C(/C=C/c1ccco1)NCc1cc(Cl)c(C(=O)N[C@@H](CNC(=O)[C@H]2CCCN2)C(=O)O)c(Cl)c1 [Compound 5]
- fraction unbound at 15 min, 10 µg/mL [1]: 0.169
- IC50 [2]: 8 nM

Compound: O=C(/C=C/c1ccco1)NCc1cc(Cl)c(C(=O)N[C@@H](CNC(=O)[C@@H]2CSCN2)C(=O)O)c(Cl)c1 [Compound 6]
- fraction unbound at 15 min, 10 µg/mL [1]: 0.0457
- IC50 [2]: 7 nM

Compound: O=C(/C=C/c1ccco1)NCc1cc(Cl)c(C(=O)N[C@@H](CNC(=O)[C@@H]2CCCCN2)C(=O)O)c(Cl)c1 [Compound 9]
- fraction unbound at 15 min, 10 µg/mL [1]: 0.228
- IC50 [2]: 2 nM

Compound: O=C(/C=C/c1ccco1)NCc1cc(Cl)c(C(=O)N[C@@H](CNC(=O)[C@H]2C[C@H](O)CN2)C(=O)O)c(Cl)c1 [Compound 10]
- fraction unbound at 15 min, 10 µg/mL [1]: 0.341
- IC50 [2]: 3 nM

Compound: O=C(/C=C/c1ccco1)NCc1cc(Cl)c(C(=O)N[C@@H](CNC(=O)[C@H]2C[C@@H](O)CN2)C(=O)O)c(Cl)c1 [Compound 12]
- fraction unbound at 15 min, 10 µg/mL [1]: 0.205
- IC50 [2]: 2 nM

Compound: C[C@H]1CCN[C@@H]1C(=O)NC[C@H](NC(=O)c1c(Cl)cc(CNC(=O)/C=C/c2ccco2)cc1Cl)C(=O)O [Compound 13]
- fraction unbound at 15 min, 10 µg/mL [1]: 0.224
- IC50 [2]: 4 nM

Compound: O=C(/C=C/c1ccco1)NCc1cc(Cl)c(C(=O)N[C@@H](CNC(=O)[C@@H]2C[C@@H](O)CN2)C(=O)O)c(Cl)c1 [Compound 14]
- fraction unbound at 15 min, 10 µg/mL [1]: 0.274
- IC50 [2]: 2 nM

Compound: O=C(/C=C/c1ccco1)NCc1cc(Cl)c(C(=O)N[C@@H](CNC(=O)[C@H]2CSCN2)C(=O)O)c(Cl)c1 [Compound 15]
- fraction unbound at 15 min, 10 µg/mL [1]: 0.0749
- IC50 [2]: 4 nM

Compound: CC(=O)N1CCC[C@H]1C(=O)NC[C@H](NC(=O)c1c(Cl)cc(CNC(=O)/C=C/c2ccco2)cc1Cl)C(=O)O [Compound 17]
- fraction unbound at 15 min, 10 µg/mL [1]: 0.154
- IC50 [2]: 3 nM

Compound: CN(C[C@H](NC(=O)c1c(Cl)cc(CNC(=O)/C=C/c2ccco2)cc1Cl)C(=O)O)C(=O)[C@@H]1CCCN1 [Compound 35]
- fraction unbound at 15 min, 10 µg/mL [1]: 0.486
- IC50 [2]: 9 nM

Compound: O=C(N[C@@H](CNC(=O)[C@@H]1CSCN1)C(=O)O)c1c(Cl)cc(C(O)CCc2cccc(O)c2)cc1Cl (stereo partly drawn) [Compound 36]
- fraction unbound at 15 min, 10 µg/mL [1]: 0.0716
- IC50 [2]: 2 nM

Compound: O=C(N[C@@H](CNC(=O)[C@H]1C[C@@H](O)CN1)C(=O)O)c1c(Cl)cc(C(O)CCc2cccc(Cl)c2)cc1Cl (stereo partly drawn) [Compound 37]
- fraction unbound at 15 min, 10 µg/mL [1]: 0.0681

Compound: O=C(/C=C/c1ccco1)NCc1cc(Cl)c(C(=O)N[C@@H](CNC(=O)[C@@H]2CSC(=O)N2)C(=O)O)c(Cl)c1 [Compound 38]
- fraction unbound at 15 min, 10 µg/mL [1]: 0.0671
- IC50 [2]: 12 nM

Compound: O=C(/C=C/c1ccco1)NCc1cc(Cl)c(C(=O)N[C@@H](CNC(=O)[C@@H]2CSC(=S)N2)C(=O)O)c(Cl)c1 [Compound 40]
- fraction unbound at 15 min, 10 µg/mL [1]: 0.0307
- IC50 [2]: 2 nM

Compound: O=C(/C=C/c1ccco1)NCc1cc(Cl)c(C(=O)N[C@@H](CNC(=O)[C@H]2NCC[C@@H]2O)C(=O)O)c(Cl)c1 [Compound 41]
- fraction unbound at 15 min, 10 µg/mL [1]: 0.152
- IC50 [2]: 3 nM

Compound: O=C(/C=C/c1ccco1)NCc1cc(Cl)c(C(=O)N[C@@H](CNC(=O)C2CSCN2)C(=O)O)c(Cl)c1 (stereo partly drawn) [Compound 42]
- fraction unbound at 15 min, 10 µg/mL [1]: 0.086
- IC50 [2]: 3 nM

Compound: CC1CC[C@@H](C(=O)NC[C@H](NC(=O)c2c(Cl)cc(CNC(=O)/C=C/c3ccco3)cc2Cl)C(=O)O)N1 (stereo partly drawn) [Compound 44]
- fraction unbound at 15 min, 10 µg/mL [1]: 0.17
- IC50 [2]: 2 nM

Compound: O=C(/C=C/c1ccco1)NCc1cc(Cl)c(C(=O)N[C@@H](CNC(=O)C2CCCO2)C(=O)O)c(Cl)c1 (stereo partly drawn) [Compound 51]
- fraction unbound at 15 min, 10 µg/mL [1]: 0.072
- IC50 [2]: 5 nM
